Patent US4999436A, “Aryl-substituted thiophene 3-ols, derivatives and analogs useful as lipoxgenase inhibitors” (Merck & Co., Inc., priority 1989, dated 1991)
Several values for one entry are separate records, joined by “and”; a condition that tells them apart may be missing. Equal entries are not always repeated.

What was measured:
5-lipoxygenase = target: T1, 5-lipoxygenase (Rattus norvegicus, UniProt P12527); experiment: PMN5LO assay: inhibition of LTB4 production in A23187-stimulated rat peritoneal PMN (RIA); format: cell-based; details: for IC50: estimated concentration required for 50% inhibition
T1 construct: endogenous in cells; host or cells: casein-elicited peritoneal polymorphonuclear leukocytes of male Sprague-Dawley rats
T1 sequence (P12527 1-673): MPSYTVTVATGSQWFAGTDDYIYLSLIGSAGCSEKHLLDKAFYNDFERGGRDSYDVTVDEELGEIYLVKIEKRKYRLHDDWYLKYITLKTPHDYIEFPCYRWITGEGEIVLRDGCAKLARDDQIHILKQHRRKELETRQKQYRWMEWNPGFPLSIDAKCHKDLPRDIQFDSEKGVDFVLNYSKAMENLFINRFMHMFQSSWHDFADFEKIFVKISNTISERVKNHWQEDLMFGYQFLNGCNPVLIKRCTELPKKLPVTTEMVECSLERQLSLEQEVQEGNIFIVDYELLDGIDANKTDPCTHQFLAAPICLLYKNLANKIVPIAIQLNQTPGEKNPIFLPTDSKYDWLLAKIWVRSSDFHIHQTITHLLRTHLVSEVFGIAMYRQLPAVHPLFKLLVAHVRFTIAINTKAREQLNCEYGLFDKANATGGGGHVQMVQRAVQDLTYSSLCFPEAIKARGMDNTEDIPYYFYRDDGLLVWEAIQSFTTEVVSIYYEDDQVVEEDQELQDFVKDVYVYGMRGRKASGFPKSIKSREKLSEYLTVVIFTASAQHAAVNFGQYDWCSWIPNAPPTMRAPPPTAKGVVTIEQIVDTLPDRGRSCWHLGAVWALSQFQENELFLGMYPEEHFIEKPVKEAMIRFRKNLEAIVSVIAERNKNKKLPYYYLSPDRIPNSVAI
Experimental: (§1) Two screening methods were employed for the purposes of evaluating the biological activities of the compounds of the present invention. The PMN5LO assay is a direct measure of the capacity to inhibit 5-lipoxygenase. The second protocol, RSVM-CO, is a method of determining inhibition of cyclooxygenase enzyme activity and as such it serves as a negative control.
Elicition of Rat Peritoneal polymorphonuclear leukoytes (PMN)
Male Sprague-Dawley rats (about 350 grams) were injected intraperitoneally the day before use with 8 ml of 12% sodium caseinate. The next day the animals were killed by CO2 asphyxiation and the peritoneal cavity lavaged twice with 20 ml of Hanks balanced salts containing 15 mM HEPES (pH 7.4), 1.4 mM Ca^++ and 0.7 mM Mg^++ (Hepes-Hanks). The suspensions were filtered through plastic mesh and centrifuged at […] for 5 minutes. The cells were resuspended in 50 ml Hepes-Hanks and recentrifuged. The PMN pellets were combined and suspended at 1.25×10^7 cells/ml.
The cell suspension was then diluted 1:10, preincubated 5 minutes at 37° C. and distributed in 200 μl aliquots in the wells of 96 well microtiter plates. The wells had previously received samples of the compounds of the present invention, controls, etc., in 25 μl of 0.001% fatty acidfree BSA in Hepes-Hanks. The plates were incubated 2 minutes at 37° C. and then the cells were stimulated to produce LTB4 by the addition of 25 μl of 100 μM calcium ionophore, designated A23187. After 4 minutes at 37° C. the plates were frozen in dry ice.
Radioimmunoassay (RIA) of LTB4
The frozen plates were thawed to 4° C. and 25 μl aliquots removed to V well plates. Antibody to LTB4 (50 μl) was added and, after 15 minutes at room temperature, 50 μl of ^3 H-LTB4 was added and the plates were stored overnight at 4° C. to allow equilibration. The next day the "free" 3H-LTB4 was removed by adsorption to dextran coated charcoal [90 μl per well of a 4% charcoal suspension with 0.25% Dextran T-70 in 10 mM potassium phosphate (pH 7.3) containing lmM EDTA and 0.25 mM thimerasol] during a 10 minute ice temperature incubation. The charcoal was removed by a 10 minute centrifugation at 200 sg. Aliquots of the supernatant were counted in a Packard 460, analyzed in a Masscomp computer and the data drawn up as % inhibition of LTB4 production.

cyclooxygenase = target: T2, cyclooxygenase (Ovis aries, UniProt P05979); experiment: RSVM-CO: Ram Seminal Vesicle Microsomal Cyclooxygenase assay; format: biochemical; details: for inhibition at 0.01 µg/mL: 0.01 μg/ml; for inhibition at 0.1 µg/mL: 0.1 μg/ml; for inhibition at 1 µg/mL: 1 μg/ml; for inhibition at 10 µg/mL: 10 μg/ml
T2 construct: Ram seminal vesicular glands were trimmed of fat; from tissue; host or cells: ram seminal vesicular glands, microsomal pellet (105K xg)
T2 sequence (P05979 25-600): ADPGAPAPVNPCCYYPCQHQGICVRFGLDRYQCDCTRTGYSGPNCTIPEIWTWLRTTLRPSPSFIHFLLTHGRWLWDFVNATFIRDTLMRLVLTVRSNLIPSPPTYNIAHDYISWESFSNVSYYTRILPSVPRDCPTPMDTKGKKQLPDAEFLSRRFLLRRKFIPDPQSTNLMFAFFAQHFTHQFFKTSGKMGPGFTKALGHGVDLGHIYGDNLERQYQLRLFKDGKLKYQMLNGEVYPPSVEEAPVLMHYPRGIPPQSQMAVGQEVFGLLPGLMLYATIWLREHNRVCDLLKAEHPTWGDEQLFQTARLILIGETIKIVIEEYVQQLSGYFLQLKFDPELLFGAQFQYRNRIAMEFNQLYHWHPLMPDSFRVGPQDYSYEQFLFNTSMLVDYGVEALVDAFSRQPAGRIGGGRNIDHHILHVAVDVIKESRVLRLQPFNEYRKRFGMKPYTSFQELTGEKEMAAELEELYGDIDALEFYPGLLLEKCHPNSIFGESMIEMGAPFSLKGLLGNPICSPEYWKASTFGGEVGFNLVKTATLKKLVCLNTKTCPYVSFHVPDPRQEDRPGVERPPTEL
From the text: as §1
B. Ram Seminal Vesicle Microsomal Cyclooxygenase (RSVM-CO) Assay Protocol
Ram seminal vesicular glands were trimmed of fat, 50 grams diced into 250 mls ice cold 0.1 M potassium phosphate (pH 7.6) buffer and homogenized using a Brinkman Polytron. The suspension was centrifuged 10 minutes at […] (4° C.) and the supernatant filtered through two cheesecloth layers. The filtrate was centrifuged 160 minutes at 105K xg, the supernatant thereof discarded, and the pellet surface rinsed with a small volume of buffer. The pellets were combined in a small volume, briefly homogenized with the Polytron and frozen in 0.5 ml aliquots at -80° C. The protein concentration was about 50 mg/ml.
The thawed enzyme was diluted 1:63 with 0.125 M Na EDTA (pH 8.0) containing 50 μg/ml BSA. A substrate-cofactor premix was prepared with 66 μM ^14 C-arachidonic acid (about 20K cpm/12.5 μl) in 500 μl 0.125 M Na EDTA (pH 8.0) plus 10 μl 50 mM hydroquinone and 10 μl 200 mM glutathione. To each sample well in the 96 well plate, agents dissolved in 0.5 μ DMSO were added, followed by 12.5 μl of the diluted enzyme. After a 4 minute preincubation at room temperature, 12.5 μl of the substrate-cofactor mix was added to start the reaction. The reaction was terminated after 20 minutes at room temperature by adding 25 μl of methanol containing 200 μg PGE2 and 400 μg AA per ml.
The entire reaction mixture was spotted onto a preadsorbent silica gel GF thin layer plate and, after air drying 45 minutes, developed 12 cm in ethyl acetate:glacial acetic acid (99:1).
The developed lanes were scanned for the distribution of radiolabel using a Bioscan Imaging Detector and the integrated peaks compared to standards and controls yielding % inhibition.

| SMILES | PMN5LO % inhibition (5-lipoxygenase; 0.33 μg/ml) | PMN5LO % inhibition (5-lipoxygenase; 1 μg/ml) | inhibition at 0.1 µg/mL (cyclooxygenase) [%] | inhibition at 1 µg/mL (cyclooxygenase) [%] | inhibition at 0.33 µg/mL (5-lipoxygenase; 0.33 μg/ml) [%] | inhibition at 1 µg/mL (5-lipoxygenase; 1 μg/ml) [%] | IC50 (5-lipoxygenase) | PMN5LO % inhibition (5-lipoxygenase; 0.012 μg/ml) [%] | inhibition at 0.012 µg/mL (5-lipoxygenase; 0.012 μg/ml) [%] | inhibition at 0.037 µg/mL (5-lipoxygenase; 0.037 μg/ml) [%] | inhibition at 0.11 µg/mL (5-lipoxygenase; 0.11 μg/ml) [%] | inhibition at 10 µg/mL (cyclooxygenase) [%] | other results |
| --- | --- | --- | --- | --- | --- | --- | --- | --- | --- | --- | --- | --- | --- |
| CC(=O)Oc1cc(-c2cccs2)sc1-c1ccccc1 | 52% and 100% | 74% and 100% | 0 | 0 |  |  |  |  |  |  |  |  | PMN5LO % inhibition (5-lipoxygenase; 0.11 μg/ml): 51% and 100%; inhibition at 0.01 µg/mL (cyclooxygenase): 0% |
| COc1ccc(-c2sc3c(c2OC(C)=O)CCCC3)cc1 | 88% | 97% | 100 | 11 | 85 | 100 | 650 nM |  |  |  |  |  | IC50 (5-lipoxygenase; unit inferred): 380 nM |
| COc1ccc(-c2sc3c(c2OC(C)=O)Cc2ccccc2-3)cc1 |  |  |  |  |  |  | 2500 nM | 0 |  |  |  |  | inhibition at 0.37 µg/mL (5-lipoxygenase; 0.37 μg/ml (so in the source)): 42% |
| CC(=O)Oc1cc(-c2ccccc2)sc1-c1ccccc1C |  |  |  |  | 34 | 79 |  |  | 15 | 15 | 17 |  |  |
| c1ccc(-c2ccc(-c3ccccc3)s2)cc1 |  |  |  |  | 23 | 38 | 4000 nM |  | 13 | 0 | 15 |  |  |
| CC(=O)Oc1cc(-c2ccccc2)oc1-c1ccccc1 |  | 33% and 66% |  |  | 53 |  |  |  | 25 | 6 | 36 |  |  |
| CC(=O)Oc1csc(-c2ccccc2)c1 [Compound 1] |  |  |  |  | 19 | 18 |  |  | 5 | 0 | 1 |  |  |
| Oc1c(-c2ccccc2)sc(-c2ccccc2)c1-c1ccccc1 [Compound 2, 3-Hydroxy-2,4,5-triphenylthiophene] |  |  |  |  |  | 53 | ~3000 nM |  | 22 | 14 | 0 | 23 | inhibition at 0.3 µg/mL (5-lipoxygenase; 0.3 μg/ml): 0%; inhibition at 10 µg/mL (5-lipoxygenase; 10 μg/ml): 95% |
| CC(=O)Oc1cc(-c2ccccc2)sc1-c1ccccc1 [Compound 3] |  |  | 13 | 8 |  |  | 88 nM and 74 nM | 38 | 27 | 57 | 100 | 29 | PMN5LO % inhibition (5-lipoxygenase; 0.037 μg/ml): 56%; inhibition at 0.05 µg/mL (5-lipoxygenase; 0.05 μg/ml): 100%; inhibition at 0.01 µg/mL (cyclooxygenase): 13% |
| Oc1cc(-c2ccccc2)sc1-c1ccccc1 [Compound 4, 3-Hydroxy-2,5-diphenylthiophene] | 85% | 88% | 24 | 6 | 98 | 99 | 110 nM | 11 | 17 |  |  | 92 | PMN5LO % inhibition (5-lipoxygenase; 0.11 μg/ml): 97% and 70%; inhibition at 0.4 µg/mL (cyclooxygenase; 0.4 μg/ml): 18%; inhibition at 2 µg/mL (cyclooxygenase; 2 μg/ml): 46% |
